Test results as given in publication PMC6961122 (Bioorganic & Medicinal Chemistry, 2020).

Tests used:
[1] = tested on: U87 cells; assay: Cell viability assay (PrestoBlue, 5 d) in U87 glioma cells; assay type: cell-based; settings: library screen, 5 d treatment, mean of three independent experiments in triplicates, read-out: EC50 U87 ± SEM
Description: (§1) The antiproliferative activity of a total of 100 compounds was tested against U87 and T98 glioma cell lines, using TMZ[3] and the Topoisomerase I inhibitor SN-38[18] as positive controls. Cells were treated with the library members for 5 d at three different concentrations (3, 30 and 300 µM) and cell viability determined using the PrestoBlue reagent. Half-maximal effective concentration (EC50) values were calculated from the corresponding dose-response curves and plotted in Fig. 2a as a heatmap to facilitate data analysis, with black meaning no activity and dark to light green to yellow transitions indicating decreasing EC50 values (=increasing potencies). Table 1 of the Suppl. Data contains the corresponding EC50 values ± SEM.
(§2) INK128 and SN-38 were used as positive controls. […] Structurally, these derivatives differed in the size of the alkyl group of the N1 position and the presence or absence of an oxygen atom in that moiety (see Suppl. Data).
(§3) U87 and T98 cells (ATCC) were cultured in DMEM (Gibco), supplemented with 10% (v/v) FBS (Gibco) and 2 mM L-Glutamine (Gibco) in a standard incubator (95% humidity, 5% CO2), and subcultured twice per week through trypsinization. G317 patient-derived glioma cells were established by the Glioma Cellular Genetics Resource (gcgr.org.uk) funded by Cancer Research UK. Ethics approval for use of patient-derived cells and early access confirmation to reagents from the Glioma Cellular Genetics Resource assured that all ethical issues according to UK legislation are fulfilled. G317 were cultured in DMEM/HAMS-F12 (Sigma) supplemented with 1.5 g L^−1 D-(+)-Glucose (Sigma), MEM non-essential aminoacids (Gibco), 0.015% (w/v) Penicillin-Streptomycin (Gibco), 0.012% (w/v) BSA (Gibco), 0.1 mM β-mercaptoethanol (Gibco), B27 (Gibco) and N2 supplements (Gibco). Cells were detached using accutase solution (Sigma) and subcultured once per week. Before adding to the cells, medium was supplemented with 10 ng ml^−1 mouse EGF (Preprotech), 10 ng ml^−1 human FGF (Preprotech), and 1 µg ml^−1 Laminin (Sigma).
(§4) 1 × 10^3 U87 cells/well, 5 × 10^2 T98 cells/well, 1 × 10^4 G317 cells/well, 1 × 10^4 HBVP cells/well and 1 × 10^4 bEnd3 cells/well were seeded in 96-well plates. After 48 h in culture, cells were treated with the inhibitors for 5 d. For GI50 determination, the viability of a triplicate sample of each experiment before treatment was measured with the PrestoBlue Reagent (Invitrogen), to establish a basepoint 0% of growth. […] ZIP Synergy scores were obtained with Synergy finder.[22] Viability percentage, EC50 and GI50 values were obtained using GraphPad Prism version 8.0.0 for Windows, GraphPad Software, San Diego, California USA, www.graphpad.com.

[2] = tested on: T98 cells; assay: Cell viability assay (PrestoBlue, 5 d) in T98 glioma cells; assay type: cell-based; settings: library screen, 5 d treatment, mean of three independent experiments in triplicates, read-out: EC50 T98 ± SEM
Description: as §1, §2, §3, §4

SMILES	EC50 [1]	EC50 [2]
CNc1ncc2c(-c3ccc(N4CCNCC4)nc3)nn(Cc3cn(C4CCCCC4O)nn3)c2n1 (stereo not drawn) [eSM123]	25.4 ± 4.66 µM	24.2 ± 3.6 µM
CCNc1ncc2c(-c3ccc(N4CCNCC4)nc3)nn(CC3OCCO3)c2n1 [eSM133]	> 30 µM	15.6 ± 2.75 µM
CNc1ncc2c(-c3ccc(N4CCN(C)CC4)nc3)nn(Cc3cn(Cc4ccccc4)nn3)c2n1 [eSM134]	18.9 ± 5.27 µM	18.8 ± 3.57 µM
CNc1ncc2c(-c3ccc(N4CCNCC4)cc3)nn(Cc3cn(Cc4ccccc4)nn3)c2n1 [eSM135]	13 ± 0.291 µM	6.26 ± 1.39 µM
CNc1ncc2c(-c3ccc(N4CCNCC4)nc3)nn(Cc3cn(-c4ccccc4)nn3)c2n1 [eSM139]	6.09 ± 1.39 µM	8.6 ± 3.39 µM
CNc1ncc2c(-c3ccc(N4CCNCC4)nc3)nn(Cc3cn(-c4ccc(Cl)cc4)nn3)c2n1 [eSM143]	3.06 ± 0.833 µM	3.02 ± 0.568 µM
CNc1ncc2c(-c3cnc4[nH]ccc4c3)nn(Cc3cn(Cc4ccccc4)nn3)c2n1 [eSM145]	14.2 ± 0.557 µM	9.11 ± 1.67 µM
CNc1ncc2c(-c3ccc(N(C)C)nc3)nn(Cc3cn(Cc4ccccc4)nn3)c2n1 [eSM146]	> 30 µM	> 30 µM
CNc1ncc2c(-c3ccc(N4CCN(C(=O)NC(C)(C)C)CC4)nc3)nn(CC3CCCC3)c2n1 [eSM149]	> 30 µM	> 30 µM
CNc1ncc2c(-c3ccc(N4CCN(C(=O)C(C)(C)C)CC4)nc3)nn(CC3CCCC3)c2n1 [eSM150]	22.7 ± 9.53 µM	10.1 ± 3 µM
CNc1ncc2c(-c3ccc(N4CCN(C(=O)C(C)(C)C)CC4)nc3)nn(Cc3cn(Cc4ccccc4)nn3)c2n1 [eSM153]	> 30 µM	> 30 µM
CCN1CCN(c2ccc(-c3nn(Cc4cn(Cc5ccccc5)nn4)c4nc(NC)ncc34)cn2)CC1 [eSM155]	> 30 µM	> 30 µM
CNc1ncc2c(-c3ccc(N4CCN(C)CC4)cc3)nn(CC3CCCC3)c2n1 [eSM156]	8 ± 3.32 µM	1.77 ± 0.865 µM
CNc1ncc2c(-c3ccc(N4CCN(C)CC4)nc3)nn(CC3CCCC3)c2n1 [eSM157]	7.28 ± 2.7 µM	1.71 ± 0.512 µM
COc1ccc(-c2nn(CC3CCCC3)c3ncnc(N)c23)cc1OC [eSM204]	8.56 ± 0.564 µM	6.58 ± 1.47 µM
COc1ccc(-c2nn(CC3CCCC3)c3ncnc(N)c23)cc1 [eSM205]	14.3 ± 6.14 µM	11.9 ± 6.5 µM
NC(=O)c1ccc(-c2nn(CC3CCCC3)c3ncnc(N)c23)cc1 [eSM207]	19.9 ± 6.03 µM	21.3 ± 3.28 µM
Nc1ncnc2c1c(-c1ccoc1)nn2C1CCCC1 [eSM209]	23.6 ± 2.51 µM	15.6 ± 1.45 µM
Nc1ncnc2c1c(-c1ccc(C(F)(F)F)cc1)nn2CC1CCCC1 [eSM210]	25 ± 3.15 µM	18.8 ± 2.69 µM
Nc1ncnc2c1c(-c1ccc(F)cc1)nn2CC1CCCC1 [eSM211]	> 30 µM	24.6 ± 3.25 µM
Nc1ncnc2c1c(-c1ccc(-c3ccccc3)cc1)nn2CC1CCCC1 [eSM212]	> 30 µM	22.8 ± 3.13 µM
